Biological target: human NEP (Homo sapiens (Human), UniProt P08473)
Assay: In vitro enzyme inhibition assay at human NEP
Details: recombinant human NEP, fluorogenic peptide substrate, 37° C.; for Ki: pKi

human NEP, sequence (P08473 52-750): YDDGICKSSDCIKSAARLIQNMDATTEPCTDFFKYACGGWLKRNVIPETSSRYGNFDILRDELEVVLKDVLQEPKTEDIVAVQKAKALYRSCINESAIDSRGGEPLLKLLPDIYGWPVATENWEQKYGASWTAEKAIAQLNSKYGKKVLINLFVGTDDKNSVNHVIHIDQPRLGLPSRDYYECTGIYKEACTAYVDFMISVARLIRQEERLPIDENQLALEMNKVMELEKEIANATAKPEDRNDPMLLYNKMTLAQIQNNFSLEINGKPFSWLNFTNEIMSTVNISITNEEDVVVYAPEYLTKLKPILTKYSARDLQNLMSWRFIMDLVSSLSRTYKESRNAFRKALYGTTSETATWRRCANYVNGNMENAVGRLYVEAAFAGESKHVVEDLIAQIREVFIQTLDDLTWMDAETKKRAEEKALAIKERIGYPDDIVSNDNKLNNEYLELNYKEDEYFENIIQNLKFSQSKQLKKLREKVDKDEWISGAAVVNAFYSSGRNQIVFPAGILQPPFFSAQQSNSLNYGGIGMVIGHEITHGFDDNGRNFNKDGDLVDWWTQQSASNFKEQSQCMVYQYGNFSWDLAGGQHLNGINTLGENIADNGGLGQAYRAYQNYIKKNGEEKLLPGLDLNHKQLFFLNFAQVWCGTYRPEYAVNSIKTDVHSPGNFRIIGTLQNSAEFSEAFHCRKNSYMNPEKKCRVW

Structure (SMILES)	Ki [nM]	pKi
CCOc1oc(C(=O)N[C@H](Cc2ccc(-c3cc(Cl)ccc3F)cc2)C[C@@H](NC(=O)OC)C(=O)O)nc1C [Example 30-8, (2R,4R)-5-(5′-Chloro-2′-fluorobiphenyl-4-yl)-4-[(5-ethoxy-4-methyl-oxazole-2-carbonyl)amino]-2-methoxycarbonylaminopentanoic acid]	1.26 to 3.16	–
O=C(N[C@H](Cc1ccc(-c2cc(Cl)ccc2F)cc1)C[C@@H](CN1CC(F)(F)C1)C(=O)O)c1cnn[nH]1 [Example 90b, (2S,4S)-5-(5′-Chloro-2′-fluorobiphenyl-4-yl)-2-(3,3-difluoroazetidin-1-ylmethyl)-4-[(3H-[1,2,3]triazole-4-carbonyl)amino]pentanoic Acid]	≤ 1	–
COCCNC[C@H](C[C@@H](Cc1ccc(-c2cc(Cl)ccc2F)cc1)NC(=O)c1cnn[nH]1)C(=O)O (single isomer, unassigned) [Example 49a]	≤ 1	–
Cc1cnc(C(=O)N[C@H](Cc2ccc(-c3cc(Cl)ccc3F)cc2)C[C@@H](N)C(=O)O)o1 [Example 16-3, (2R,4R)-2-Amino-5-(5′-chloro-2′-fluorobiphenyl-4-yl)-4-[(5-methyloxazole-2-carbonyl)-amino]pentanoic acid]	1.26 to 3.16	–
NC[C@H](C[C@@H](Cc1ccc(-c2cc(Cl)ccc2F)cc1)NC(=O)c1c[nH]nn1)C(=O)O [Example 20, (2S,4S)-2-Aminomethyl-5-(5′-chloro-2′-fluorobiphenyl-4-yl)-4-[(1H-[1,2,3]triazole-4-carbonyl)amino]pentanoic Acid]	–	≧9.0
CC(C)c1coc(C(=O)N[C@H](Cc2ccc(-c3cc(Cl)ccc3F)cc2)C[C@@H](NC(=O)[C@@H](C)N)C(=O)O)n1 [Example 36-2, (2R,4R)-2-((R)-2-Aminopropionylamino)-5-(5′-chloro-2′-fluorobiphenyl-4-yl)-4-[(4-isopropy-oxazole-2-carbonyl)-amino]pentanoic Acid]	1.26 to 3.16	–
N[C@@H](C[C@@H](Cc1ccc(-c2cc(Cl)ccc2F)cc1)NC(=O)c1cc(O)no1)C(=O)O [Example 16-27, (2S,4R)-2-Amino-5-(5′-chloro-2′-fluorobiphenyl-4-yl)-4-[(3-hydroxyisoxazole-5-carbonyl)amino]pentanoic acid]	1.26 to 3.16	–
O=C(N[C@H](Cc1ccc(-c2cc(Cl)ccc2F)cc1)C[C@@H](CN1CC(CO)(CO)C1)C(=O)O)c1cnn[nH]1 [Example 92b, (2S,4S)-2-(3,3-Bis-hydroxymethylazetidin-1-ylmethyl)-5-(5′-chloro-2′-fluorobiphenyl-4-yl)-4-[(3H-[1,2,3]triazole-4-carbonyl)amino]pentanoic Acid]	≤ 1	–
CN(CCO)C[C@H](C[C@@H](Cc1ccc(-c2cc(Cl)ccc2F)cc1)NC(=O)c1c[nH]nn1)C(=O)O [Example 106, (2S,4S)-5-(5′-Chloro-2′-fluorobiphenyl-4-yl)-2-{[(2-hydroxyethyl)-methylamino]methyl}-4-[(1H-[1,2,3]triazole-4-carbonyl)amino]pentanoic Acid]	1.26 to 3.16	–
Cc1cnc(C(=O)N[C@H](Cc2ccc(-c3cc(Cl)ccc3F)cc2)C[C@@H](CNC(=O)C(C)(C)N)C(=O)O)o1 [Example 45, (2S,4S)-2-[(2-Amino-2-methylpropionylamino)methyl]-5-(5′-chloro-2′-fluorobiphenyl-4-yl)-4-[(5-methyloxazole-2-carbonyl)-amino]pentanoic Acid]	≤ 1	–
COCCCN[C@H](C[C@@H](Cc1ccc(-c2cc(Cl)ccc2F)cc1)NC(=O)c1c[nH]nn1)C(=O)O [Example 97a]	≤ 1	–
CC(C)c1coc(C(=O)N[C@H](Cc2ccc(-c3cc(Cl)ccc3F)cc2Cl)C[C@H](N)C(=O)O)n1 [Example 18-1, (2S,4R)-2-Amino-5-(3,5′-dichloro-2′-fluorobiphenyl-4-yl)-4-[(4-isopropyloxazole-2-carbonyl)amino]pentanoic acid]	3.16 to 10	–
COC[C@H](C[C@@H](Cc1ccc(-c2cccc(Br)c2)cc1)NC(=O)c1cnn[nH]1)C(=O)O [Example 80, (2S,4S)-5-(3′-Bromobiphenyl-4-yl)-2-methoxymethyl-4-[(3H-[1,2,3]triazole-4-carbonyl)amino]pentanoic Acid]	–	≧9.0
N[C@H](C[C@@H](Cc1ccc(-c2cc(Cl)ccc2F)cc1Cl)NC(=O)c1cc(C2CC2)on1)C(=O)O [Example 18-9, (2R,4R)-2-Amino-4-[(5-cyclopropyl-isoxazole-3-carbonyl)-amino]-5-(3,5′-dichloro-2′-fluorobiphenyl-4-yl)pentanoic acid]	3.16 to 10	–
CC(C)[C@H](N)C(=O)N[C@H](C[C@@H](Cc1ccc(-c2cc(Cl)ccc2F)cc1)NC(=O)c1cnn[nH]1)C(=O)O [Example 39-1, (2R,4R)-2-((S)-2-Amino-3-methylbutyrylamino)-5-(5′-chloro-2′-fluorobiphenyl-4-yl)-4-[(3H-[1,2,3]triazole-4-carbonyl)amino]pentanoic acid]	–	≧9.0
COC[C@H](C[C@@H](Cc1ccc(-c2cc(Cl)ccc2F)cc1)NC(=O)c1ncco1)C(=O)O [Example 2-7, (2S,4S)-5-(5′-Chloro-2′-fluorobiphenyl-4-yl)-2-methoxymethyl-4-[(oxazole-2-carbonyl)amino]pentanoic acid]	–	≧9.0

Structure (SMILES)	Ki [nM]	pKi
NCC(=O)N[C@H](C[C@@H](Cc1ccc(-c2ccccc2F)cc1)NC(=O)c1c[nH]nn1)C(=O)O [Example 32, (2R,4R)-2-(2-Aminoacetylamino)-5-(2′-fluorobiphenyl-4-yl)-4-[(1H-[1,2,3]triazole-4-carbonyl)amino]pentanoic Acid]	3.16 to 10	–
CCOc1nc(C(=O)N[C@H](Cc2ccc(-c3cc(Cl)ccc3F)cc2)C[C@@H](CN)C(=O)O)co1 [Example 21-4, (2S,4S)-2-Aminomethyl-5-(5′-chloro-2′-fluorobiphenyl-4-yl)-4-[(2-ethoxy-oxazole-4-carbonyl)amino]pentanoic acid]	1.26 to 3.16	–
COC(=O)NCC(=O)N[C@H](C[C@@H](Cc1ccc(-c2cc(Cl)ccc2F)cc1)NC(=O)c1c[nH]nn1)C(=O)O [Example 67, (2R,4R)-5-(5′-Chloro-2′-fluorobiphenyl-4-yl)-2-(2-methoxycarbonylaminoacetylamino)-4-[(1H-[1,2,3]triazole-4-carbonyl)amino]pentanoic Acid]	–	≧9.0
Cc1cnc(C(=O)N[C@H](Cc2ccc(-c3cc(Cl)ccc3F)cc2Cl)C[C@H](N)C(=O)O)o1 [Example 18-4, (2S,4R)-2-Amino-5-(3,5′-dichloro-2′-fluorobiphenyl-4-yl)-4-[(5-methyloxazole-2-carbonyl)amino]pentanoic acid]	3.16 to 10	–
CC(C)c1coc(C(=O)N[C@H](Cc2ccc(-c3cc(Cl)ccc3F)cc2)C[C@@H](NC(=O)[C@H](C)N)C(=O)O)n1 [Example 36-1, (2R,4R)-2-((S)-2-Aminopropionylamino)-5-(5′-chloro-2′-fluorobiphenyl-4-yl)-4-[(4-isopropyloxazole-2-carbonyl)amino]pentanoic Acid]	1.26 to 3.16	–
CC(=O)N[C@H](C[C@@H](Cc1ccc(-c2ccccc2F)cc1)NC(=O)c1c[nH]nn1)C(=O)O [Example 25, (2R,4R)-2-Acetylamino-5-(2′-fluorobiphenyl-4-yl)-4-[(1H-[1,2,3]triazole-4-carbonyl)amino]pentanoic Acid]	3.16 to 10	–
COCc1cc(C(=O)N[C@H](Cc2ccc(-c3cc(Cl)ccc3F)cc2Cl)C[C@@H](N)C(=O)O)no1 [Example 18-7, (2R,4R)-2-Amino-5-(3,5′-dichloro-2′-fluorobiphenyl-4-yl)-4-[(5-methoxymethylisoxazole-3-carbonyl)amino]pentanoic acid]	10 to 31.6	–
CCc1cc(C(=O)N[C@H](Cc2ccc(-c3cc(Cl)ccc3F)cc2)C[C@@H](N)C(=O)O)on1 [Example 16-1, (2R,4R)-2-Amino-5-(5′-chloro-2′-fluorobiphenyl-4-yl)-4-[(3-ethylisoxazole-5-carbonyl)-amino]pentanoic acid]	1.26 to 3.16	–
CC(C)c1coc(C(=O)N[C@H](Cc2ccc(-c3cc(Cl)ccc3F)cc2Cl)C[C@@H](N)C(=O)O)n1 [Example 17, (2R,4R)-2-Amino-5-(3,5′-dichloro-2′-fluorobiphenyl-4-yl)-4-[(4-isopropyloxazole-2-carbonyl)amino]pentanoic Acid]	≤ 1	–
CCOC[C@H](C[C@@H](Cc1ccc(-c2cccc(Cl)c2)cc1)NC(=O)c1n[nH]c(C(F)(F)F)n1)C(=O)O [Example 9-3, (2S,4S)-5-(3′-Chlorobiphenyl-4-yl)-2-ethoxymethyl-4-[(5-trifluoromethyl-1H-[1,2,4]triazole-3-carbonyl)amino]pentanoic acid]	–	≧9.0
O=C(N[C@H](Cc1ccc(-c2cc(Cl)ccc2F)cc1)C[C@@H](CN1CC[C@@H]1CO)C(=O)O)c1cnn[nH]1 [Example 94b]	≤ 1	–
O=C(N[C@H](Cc1ccc(-c2cc(Cl)ccc2F)cc1)C[C@@H](Cc1nnn[nH]1)C(=O)O)c1cnn[nH]1 [Example 63, (2S,4S)-5-(5′-Chloro-2′-fluorobiphenyl-4-yl)-2-(1H-tetrazol-5-ylmethyl)-4-[(3H-[1,2,3]triazole-4-carbonyl)amino]pentanoic Acid]	1.26 to 3.16	–
CCc1cc(C(=O)N[C@H](Cc2ccc(-c3cc(Cl)ccc3F)cc2Cl)C[C@@H](N)C(=O)O)on1 [Example 18-5, (2R,4R)-2-Amino-5-(3,5′-dichloro-2′-fluorobiphenyl-4-yl)-4-[(3-ethylisoxazole-5-carbonyl)amino]pentanoic acid]	1.26 to 3.16	–
O=C(N[C@H](Cc1ccc(-c2cc(Cl)ccc2F)cc1)C[C@@H](CNCCO)C(=O)O)c1cnn[nH]1 (single isomer, unassigned) [Example 48b]	1.26 to 3.16	–
CN(C)CC(=O)N[C@H](C[C@@H](Cc1ccc(-c2cc(Cl)ccc2F)cc1)NC(=O)c1cnn[nH]1)C(=O)O [Example 64, (2R,4R)-5-(5′-Chloro-2′-fluorobiphenyl-4-yl)-2-(2-dimethylaminoacetylamino)-4-[(3H-[1,2,3]triazole-4-carbonyl)amino]pentanoic Acid]	1.26 to 3.16	–
CCOC[C@H](C[C@@H](Cc1ccc(-c2cc(Cl)ccc2F)cc1)NC(=O)c1n[nH]c(C(F)(F)F)n1)C(=O)O [Example 6, (2S,4S)-5-(5′-Chloro-2′-fluorobiphenyl-4-yl)-2-ethoxymethyl-4-[(5-trifluoromethyl-1H-[1,2,4]triazole-3-carbonyl)amino]pentanoic Acid]	–	≧9.0

— US9593110B2, “Neprilysin inhibitors” (Theravence Biopharma R&D IP, LLC, priority 2014, dated 2017)
